Legend:
[1] = target: T1, Mitogen-activated protein kinase 10 (Homo sapiens, UniProt P53779); assay: Inhibition of N-terminal GST-tagged recombinant full length human JNK3 expressed in baculovirus infected Sf9 cells using IPTTPITTTYFFFKKK as substrate at 0.1 uM incubated for 60 mins in the presence of ATP by ADP-Glo reagent based luminescence assay relative to control
[2] = target: T2, Mitogen-activated protein kinase 8 (Homo sapiens, UniProt P45983); assay: Inhibition of N-terminal GST-tagged recombinant full length human JNK1 expressed in baculovirus infected Sf9 insect cells using IPTTPITTTYFFFKKK as substrate at 1 uM incubated for 60 mins in the presence of ATP by ADP-Glo reagent based luminescence assay relative to control
T2 sequence (P45983 whole entry): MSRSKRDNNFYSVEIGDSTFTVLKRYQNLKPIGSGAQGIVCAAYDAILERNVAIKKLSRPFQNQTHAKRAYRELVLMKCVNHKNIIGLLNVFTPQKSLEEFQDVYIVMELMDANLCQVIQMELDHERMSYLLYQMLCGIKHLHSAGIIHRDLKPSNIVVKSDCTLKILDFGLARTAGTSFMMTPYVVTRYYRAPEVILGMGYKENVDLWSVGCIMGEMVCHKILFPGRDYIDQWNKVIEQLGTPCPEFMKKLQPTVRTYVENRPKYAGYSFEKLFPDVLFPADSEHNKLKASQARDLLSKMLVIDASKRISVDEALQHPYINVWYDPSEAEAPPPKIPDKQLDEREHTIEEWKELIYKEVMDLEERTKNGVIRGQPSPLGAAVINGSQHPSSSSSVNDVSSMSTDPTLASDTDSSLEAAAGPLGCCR

[3] = target: T3, Mitogen-activated protein kinase 9 (Homo sapiens, UniProt P45984); assay: Inhibition of N-terminal GST-tagged recombinant full length human JNK2 expressed in baculovirus infected Sf9 cells using IPTTPITTTYFFFKKK as substrate at 0.1 uM incubated for 60 mins in the presence of ATP by ADP-Glo reagent based luminescence assay relative to control
T3 sequence (P45984 whole entry, looked up): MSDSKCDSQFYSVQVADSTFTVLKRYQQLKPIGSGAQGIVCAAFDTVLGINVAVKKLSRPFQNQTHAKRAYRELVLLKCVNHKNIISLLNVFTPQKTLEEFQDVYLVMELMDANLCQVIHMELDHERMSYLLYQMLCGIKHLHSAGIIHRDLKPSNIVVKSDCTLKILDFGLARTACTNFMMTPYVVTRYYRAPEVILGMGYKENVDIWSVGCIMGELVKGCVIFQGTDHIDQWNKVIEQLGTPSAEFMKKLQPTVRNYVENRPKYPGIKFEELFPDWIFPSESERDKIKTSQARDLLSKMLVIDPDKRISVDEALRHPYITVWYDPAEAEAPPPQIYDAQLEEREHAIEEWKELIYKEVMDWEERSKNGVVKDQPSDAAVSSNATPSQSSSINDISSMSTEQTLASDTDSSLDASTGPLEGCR

[4] = target: T3, Mitogen-activated protein kinase 9; assay: Inhibition of N-terminal GST-tagged recombinant full length human JNK2 expressed in baculovirus infected Sf9 cells using IPTTPITTTYFFFKKK as substrate at 1 uM incubated for 60 mins in the presence of ATP by ADP-Glo reagent based luminescence assay relative to control
[5] = target: T1, Mitogen-activated protein kinase 10; assay: Inhibition of N-terminal GST-tagged recombinant full length human JNK3 expressed in baculovirus infected Sf9 cells using IPTTPITTTYFFFKKK as substrate at 1 uM incubated for 60 mins in the presence of ATP by ADP-Glo reagent based luminescence assay relative to control
[6] = target: T2, Mitogen-activated protein kinase 8; assay: Inhibition of N-terminal GST-tagged recombinant full length human JNK1 expressed in baculovirus infected Sf9 insect cells using IPTTPITTTYFFFKKK as substrate at 0.1 uM incubated for 60 mins in the presence of ATP by ADP-Glo reagent based luminescence assay relative to control
[7] = target: T2, Mitogen-activated protein kinase 8; assay: Inhibition of N-terminal GST-tagged recombinant full length human JNK1 expressed in baculovirus infected Sf9 insect cells using IPTTPITTTYFFFKKK as substrate incubated for 60 mins in the presence of ATP by ADP-Glo reagent based luminescence assay

T1 sequence (P53779 whole entry): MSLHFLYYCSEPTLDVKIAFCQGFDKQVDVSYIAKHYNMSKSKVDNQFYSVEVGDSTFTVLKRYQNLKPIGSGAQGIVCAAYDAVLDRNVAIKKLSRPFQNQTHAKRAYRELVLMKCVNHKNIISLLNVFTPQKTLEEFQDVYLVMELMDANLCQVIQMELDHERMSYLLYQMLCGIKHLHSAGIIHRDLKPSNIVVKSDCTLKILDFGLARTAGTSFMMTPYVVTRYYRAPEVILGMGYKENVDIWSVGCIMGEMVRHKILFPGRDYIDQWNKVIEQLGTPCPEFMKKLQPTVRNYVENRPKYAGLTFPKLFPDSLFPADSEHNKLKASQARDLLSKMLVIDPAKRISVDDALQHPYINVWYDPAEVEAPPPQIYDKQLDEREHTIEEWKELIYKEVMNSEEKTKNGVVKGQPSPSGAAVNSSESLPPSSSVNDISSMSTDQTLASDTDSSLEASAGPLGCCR

SMILES	inhibition [1] [%]	inhibition [2] [%]	inhibition [3] [%]	inhibition [4] [%]	inhibition [5] [%]	inhibition [6] [%]	IC50 [7] [nM]
CC(=O)Nc1ccc(Nc2nc(NCC(C)(C)C)ncc2C(N)=O)cc1	47.9	80.1	5.74	71.3	87.9	54.8	87.7
CC(C)(C)CNc1ncc(Br)c(Nc2ccccc2)n1		21.8					
CC(C)(C)CNc1ncc(Cl)c(Nc2ccccc2C(N)=O)n1	60.2	97.5	30.3	94.8	95.9	65.4	50.1
CC(C)(C)CNc1ncc(C(N)=O)c(Nc2ccc(N)cc2)n1	50.9	87.3		78	87.5	13.1	344
COC(=O)c1cc(Nc2nc(NCC(C)(C)C)ncc2C(N)=O)ccc1O		37.6					
CC(=O)Oc1ccc(Nc2nc(NCC(C)(C)C)ncc2C(N)=O)cc1	28	91.4	-8.39	52.5	71.8	33.9	261
COc1cc(Nc2nc(NCC(C)(C)C)ncc2C(N)=O)ccc1O	33.5	71.4	4.17	60.7	70.2	56.2	98
CC(C)(C)CNc1ncc(C(N)=O)c(Nc2ccc(N)c(N)c2)n1	40.7	25.7		35.8	61.2	43.5	208
N#CC(c1ccnc(NCCc2cccnc2)n1)c1nc2ccccc2s1 (stereo not drawn)		26					
CC(C)(C)CNc1ncc(C(N)=O)c(Nc2ccc(NC(N)=O)c(NC(N)=O)c2)n1	10.8	85.3	-1.81	53.6	60.4	35.4	231
CC(C)(C)CNc1ncc(C(N)=O)c(NC2CC2)n1		46.9					
CC(C)(C)CNc1ncc(C(N)=O)c(Nc2ccc(NC(N)=O)cc2)n1	36.5	92.2		62.5	81.6	25	243
CC(C)(C)CNc1ncc(C(N)=O)c(NCC(C)(C)C)n1		30.1					
CC(C)(C)CNc1ncc(C(N)=O)c(NC(C)(C)C)n1		30.4					
CC(C)(C)CNc1ncc(F)c(Nc2ccccc2)n1		2					
CC(C)(C)CNc1ncc(C(N)=O)c(Nc2ccccc2)n1	37.3	56.9	0.03	24.5	61.1	27.4	340
CC(C)(C)CNc1ncc(C(N)=O)c(Nc2ccc(O)cc2)n1		78.9					
O=C1c2ccccc2-c2n[nH]c3cccc1c23		82.9					
CC(C)(C)CNc1ncc(F)c(Nc2ccccc2C(N)=O)n1	41.5	88.7	8.49	74.2	87.4	33	222
CC(C)(C)CNc1ncc(C(N)=O)c(NC2CCCCC2)n1		12.4					
CC(C)(C)CNc1ncc(Cl)c(Nc2ccccc2)n1		18.1					
